{"source": "paper PMC10424705", "about": "“Physiological insight into the conserved properties of Caenorhabditis elegans acid‐sensing degenerin/epithelial sodium channels” (The Journal of Physiology, 2022)", "test_in_all_cases": "two-electrode voltage clamp, Xenopus oocytes", "assay_type_in_all_cases": "cell-based", "key": {"UNC-105h [1]": {"target": "T1, UNC-105h (Caenorhabditis elegans, UniProt Q09274)", "T1 construct": "isoform h cDNA in KSM vector, Xenopus laevis oocytes, homomeric channel (trimer by known biology)", "T1 sequence (Q09274 1-887)": "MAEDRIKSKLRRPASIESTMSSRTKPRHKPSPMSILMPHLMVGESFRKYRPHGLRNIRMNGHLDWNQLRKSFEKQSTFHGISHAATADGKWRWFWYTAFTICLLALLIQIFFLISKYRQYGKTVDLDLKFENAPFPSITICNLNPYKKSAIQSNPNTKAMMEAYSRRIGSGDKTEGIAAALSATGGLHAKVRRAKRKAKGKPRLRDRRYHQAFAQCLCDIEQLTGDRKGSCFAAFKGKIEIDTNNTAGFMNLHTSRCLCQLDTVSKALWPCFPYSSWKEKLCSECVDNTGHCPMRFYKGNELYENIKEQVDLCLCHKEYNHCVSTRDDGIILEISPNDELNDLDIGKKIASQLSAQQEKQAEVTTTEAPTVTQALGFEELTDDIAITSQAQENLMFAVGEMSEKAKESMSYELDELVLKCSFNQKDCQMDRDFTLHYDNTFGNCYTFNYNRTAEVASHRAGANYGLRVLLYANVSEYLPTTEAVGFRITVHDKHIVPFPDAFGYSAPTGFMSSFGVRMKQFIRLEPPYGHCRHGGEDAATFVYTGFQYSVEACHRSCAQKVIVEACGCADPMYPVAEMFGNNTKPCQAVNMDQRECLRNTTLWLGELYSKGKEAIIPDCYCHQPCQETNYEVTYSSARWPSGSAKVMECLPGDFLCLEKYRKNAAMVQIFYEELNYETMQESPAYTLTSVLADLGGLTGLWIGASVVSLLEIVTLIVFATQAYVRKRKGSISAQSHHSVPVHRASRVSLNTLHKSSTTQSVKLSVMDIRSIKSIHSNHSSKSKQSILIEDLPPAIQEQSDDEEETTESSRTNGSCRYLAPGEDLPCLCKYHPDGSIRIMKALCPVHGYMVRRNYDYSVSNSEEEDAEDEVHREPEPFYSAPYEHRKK", "conditions": "pH 7.4, -60 mV, ND96, room temperature; second, current-restoring phase of biphasic response; text b54 prints 6.7 µM instead"}, "UNC-105h [2]": {"target": "T1, UNC-105h", "conditions": "pH 7.4, -60 mV, ND96, room temperature; paradoxical biphasic response, low-concentration inhibition"}, "ASIC-1": {"target": "T2, ASIC-1 (Caenorhabditis elegans, UniProt O01635)", "T2 construct": "full-length cDNA in KSM vector, Xenopus laevis oocytes, homomeric channel (trimer by known biology)", "T2 sequence (O01635 1-823)": "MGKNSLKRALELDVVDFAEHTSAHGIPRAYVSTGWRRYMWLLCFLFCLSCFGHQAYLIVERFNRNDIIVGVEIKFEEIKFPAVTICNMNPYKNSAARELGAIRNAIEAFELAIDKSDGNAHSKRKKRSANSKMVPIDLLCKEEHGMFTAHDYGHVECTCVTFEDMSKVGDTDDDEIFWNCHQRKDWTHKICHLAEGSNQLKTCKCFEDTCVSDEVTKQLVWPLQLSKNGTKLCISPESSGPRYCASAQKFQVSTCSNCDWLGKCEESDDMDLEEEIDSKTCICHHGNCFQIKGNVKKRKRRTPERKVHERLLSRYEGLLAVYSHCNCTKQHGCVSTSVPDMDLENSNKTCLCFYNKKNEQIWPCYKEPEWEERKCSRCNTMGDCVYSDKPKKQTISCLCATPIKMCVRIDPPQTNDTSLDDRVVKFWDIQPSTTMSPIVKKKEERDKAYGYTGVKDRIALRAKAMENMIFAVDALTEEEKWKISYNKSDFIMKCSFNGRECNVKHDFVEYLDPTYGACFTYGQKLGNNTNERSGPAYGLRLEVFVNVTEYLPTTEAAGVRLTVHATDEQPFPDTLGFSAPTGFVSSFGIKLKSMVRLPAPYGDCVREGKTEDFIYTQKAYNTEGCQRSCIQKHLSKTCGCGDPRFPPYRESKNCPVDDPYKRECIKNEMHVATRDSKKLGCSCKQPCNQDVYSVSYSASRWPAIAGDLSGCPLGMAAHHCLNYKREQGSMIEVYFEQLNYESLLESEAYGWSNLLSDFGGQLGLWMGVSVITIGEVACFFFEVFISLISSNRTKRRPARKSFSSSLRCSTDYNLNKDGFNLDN"}}}
{"smiles": "N=C(N)NC(=O)c1nc(Cl)c(N)nc1N", "note": "[amiloride]", "values": [{"measurement": "EC50", "setting": "UNC-105h [1]", "value": 5.9, "unit": "µM"}, {"measurement": "IC50", "setting": "UNC-105h [2]", "value": 0.76, "unit": "µM"}, {"measurement": "IC50", "setting": "ASIC-1", "value": 108, "unit": "µM"}]}
